Source: PMC5218480 (PLoS ONE, 2017)

Tested on: MV-4-11 cells
Assay: Gene expression microarray analysis (Affymetrix PrimeView) and GSEA
Type: cell-based, human
Parameters: RFU PODN (11730768_x_at) / Fold change /veh PODN (11730768_x_at) / RFU LINC00158 (11744669_a_at) / Fold change /veh LINC00158 (11744669_a_at) / RFU DUSP10 (11751237_a_at) / Fold change /veh DUSP10 (11751237_a_at) / RFU ID3 (11757404_x_at) / Fold change /veh ID3 (11757404_x_at) / RFU PLEKHG5 (11737974_s_at) / Fold change /veh PLEKHG5 (11737974_s_at) / RFU LRRC4B (11730491_at) / Fold change /veh LRRC4B (11730491_at) / RFU GIMAP4 (11747438_a_at) / Fold change /veh GIMAP4 (11747438_a_at) / RFU KRT8 (11758183_x_at) / Fold change /veh KRT8 (11758183_x_at) / RFU CNN1 (11734310_a_at) / Fold change /veh CNN1 (11734310_a_at) / RFU VPS37D (11726825_at) / Fold change /veh VPS37D (11726825_at) / RFU C10orf10 (11716522_x_at) / Fold change /veh C10orf10 (11716522_x_at) / RFU KIR2DL2 /// KIR2DL4 /// KIR2DL5A /// KIR2DL5B /// KIR2DS1 /// KIR2DS2 /// KIR2DS3 /// KIR2DS4 /// KIR3DL3 /// KIR3DL3 /// KIR3DS1 (11738374_at) / Fold change /veh KIR2DL2 /// KIR2DL4 /// KIR2DL5A /// KIR2DL5B /// KIR2DS1 /// KIR2DS2 /// KIR2DS3 /// KIR2DS4 /// KIR3DL3 /// KIR3DL3 /// KIR3DS1 (11738374_at) / RFU C1QL1 (11718748_at) / Fold change /veh C1QL1 (11718748_at) / RFU TMPRSS4 (11747572_a_at) / Fold change /veh TMPRSS4 (11747572_a_at) / RFU HAMP (11756126_x_at) / Fold change /veh HAMP (11756126_x_at) / RFU RNFT2 (11725882_a_at) / Fold change /veh RNFT2 (11725882_a_at) / RFU NR4A2 (11747474_a_at) / Fold change /veh NR4A2 (11747474_a_at) / RFU ABCC12 (11746883_a_at) / Fold change /veh ABCC12 (11746883_a_at) / RFU TMEM136 (11760407_x_at) / Fold change /veh TMEM136 (11760407_x_at) / RFU CLDN22 /// WWC2 (11732394_at) / Fold change /veh CLDN22 /// WWC2 (11732394_at) / RFU HLA-DPB1 (11760878_x_at) / Fold change /veh HLA-DPB1 (11760878_x_at) / RFU SPINT1 (11716480_a_at) / Fold change /veh SPINT1 (11716480_a_at) / RFU GAP43 (11754022_s_at) / Fold change /veh GAP43 (11754022_s_at) / RFU A4GNT (11735810_at) / Fold change /veh A4GNT (11735810_at) / RFU PRB3 (11715151_x_at) / Fold change /veh PRB3 (11715151_x_at) / RFU TUBB4B (11761932_at) / Fold change /veh TUBB4B (11761932_at) / RFU CAPN14 (11732068_a_at) / Fold change /veh CAPN14 (11732068_a_at) / RFU TMCC2 (11721928_a_at) / Fold change /veh TMCC2 (11721928_a_at) / RFU IRGQ (11745062_a_at) / Fold change /veh IRGQ (11745062_a_at) / RFU FAM174B (11720279_a_at) / Fold change /veh FAM174B (11720279_a_at) / RFU TMPRSS4 (11748680_a_at) / Fold change /veh TMPRSS4 (11748680_a_at) / RFU FAM212B (11763350_a_at) / Fold change /veh FAM212B (11763350_a_at) / RFU PLEKHG5 (11743358_a_at) / Fold change /veh PLEKHG5 (11743358_a_at) / RFU ZSCAN30 (11745921_a_at) / Fold change /veh ZSCAN30 (11745921_a_at) / RFU CMKLR1 (11741424_a_at) / Fold change /veh CMKLR1 (11741424_a_at) / RFU LOC101060620 /// MAPK8IP1 (11723275_at) / Fold change /veh LOC101060620 /// MAPK8IP1 (11723275_at) / RFU SPTSSB (11747773_x_at) / Fold change /veh SPTSSB (11747773_x_at) / RFU PRSS12 (11739890_at) / Fold change /veh PRSS12 (11739890_at) / RFU BIN1 (11741810_x_at) / Fold change /veh BIN1 (11741810_x_at) / RFU WNT11 (11732464_a_at) / Fold change /veh WNT11 (11732464_a_at) / RFU C10orf10 (11716521_a_at) / Fold change /veh C10orf10 (11716521_a_at) / RFU C5orf56 (11738089_at) / Fold change /veh C5orf56 (11738089_at) / RFU CYB561 (11721691_x_at) / Fold change /veh CYB561 (11721691_x_at) / RFU ANKRD19P (11752326_a_at) / Fold change /veh ANKRD19P (11752326_a_at) / RFU OR2T12 /// OR2T33 /// OR2T8 (11738714_s_at) / Fold change /veh OR2T12 /// OR2T33 /// OR2T8 (11738714_s_at) / RFU VCAN (11748164_a_at) / Fold change /veh VCAN (11748164_a_at) / RFU JSRP1 (11732532_at) / Fold change /veh JSRP1 (11732532_at) / RFU KRTAP10-11 (11738290_x_at) / Fold change /veh KRTAP10-11 (11738290_x_at) / RFU MYO3A (11730013_a_at) / Fold change /veh MYO3A (11730013_a_at) / RFU EBF3 (11725865_a_at) / Fold change /veh EBF3 (11725865_a_at) / RFU CAMK2N1 (11719241_x_at) / Fold change /veh CAMK2N1 (11719241_x_at) / RFU C5orf56 (11738088_a_at) / Fold change /veh C5orf56 (11738088_a_at) / RFU OLFML3 (11715873_a_at) / Fold change /veh OLFML3 (11715873_a_at) / RFU LOC100653217 /// NTM (11731650_a_at) / Fold change /veh LOC100653217 /// NTM (11731650_a_at) / RFU MAPK11 (11762145_a_at) / Fold change /veh MAPK11 (11762145_a_at) / RFU FIZ1 (11724087_x_at) / Fold change /veh FIZ1 (11724087_x_at) / RFU OASL (11726364_x_at) / Fold change /veh OASL (11726364_x_at) / RFU SOX15 (11748057_x_at) / Fold change /veh SOX15 (11748057_x_at) / RFU CD79A (11719716_a_at) / Fold change /veh CD79A (11719716_a_at) / RFU HIST1H1D (11736915_at) / Fold change /veh HIST1H1D (11736915_at) / RFU CASKIN2 (11723855_a_at) / Fold change /veh CASKIN2 (11723855_a_at) / RFU LOC730098 (11760151_x_at) / Fold change /veh LOC730098 (11760151_x_at) / RFU OR4N2 (11742367_at) / Fold change /veh OR4N2 (11742367_at) / RFU PRRT2 (11749266_a_at) / Fold change /veh PRRT2 (11749266_a_at) / RFU SNX32 (11753110_a_at) / Fold change /veh SNX32 (11753110_a_at) / RFU CDHR5 (11726645_a_at) / Fold change /veh CDHR5 (11726645_a_at) / RFU RCAN1 (11760418_a_at) / Fold change /veh RCAN1 (11760418_a_at) / RFU FAM167A (11723789_a_at) / Fold change /veh FAM167A (11723789_a_at) / RFU FAM26E (11764081_at) / Fold change /veh FAM26E (11764081_at) / RFU ISYNA1 (11749810_s_at) / Fold change /veh ISYNA1 (11749810_s_at) / RFU ACY1 (11761880_at) / Fold change /veh ACY1 (11761880_at) / RFU 11764098_at / Fold change /veh 11764098_at / RFU SAMD14 (11745864_x_at) / Fold change /veh SAMD14 (11745864_x_at) / RFU NPB (11741838_a_at) / Fold change /veh NPB (11741838_a_at) / RFU TMPRSS6 (11731388_a_at) / Fold change /veh TMPRSS6 (11731388_a_at) / RFU KRTAP10-2 (11738614_at) / Fold change /veh KRTAP10-2 (11738614_at) / RFU ARHGAP8 /// PRR5-ARHGAP8 (11727945_x_at) / Fold change /veh ARHGAP8 /// PRR5-ARHGAP8 (11727945_x_at) / RFU KRTAP5-7 /// NADSYN1 (11734609_at) / Fold change /veh KRTAP5-7 /// NADSYN1 (11734609_at) / RFU RASL12 (11751679_a_at) / Fold change /veh RASL12 (11751679_a_at) / RFU CDKN2B (11736163_a_at) / Fold change /veh CDKN2B (11736163_a_at) / RFU PRF1 (11729649_at) / Fold change /veh PRF1 (11729649_at) / RFU, ZNF638 /// ZNF638-IT1 / Fold change vs veh, ZNF638 /// ZNF638-IT1 / RFU, PANK3 / Fold change vs veh, PANK3 / RFU, SH3YL1 / Fold change vs veh, SH3YL1 / RFU, ZEB2 / Fold change vs veh, ZEB2 / RFU, NRIP1 / Fold change vs veh, NRIP1 / RFU, PTTG1IP / Fold change vs veh, PTTG1IP / RFU, CAPN2 / Fold change vs veh, CAPN2 / RFU, MED14 / Fold change vs veh, MED14 / RFU, SNORA58 / Fold change vs veh, SNORA58 / RFU, C1orf63 / Fold change vs veh, C1orf63 / RFU, LRRFIP1 / Fold change vs veh, LRRFIP1 / RFU, NDUFAF7 / Fold change vs veh, NDUFAF7 / RFU, SLC12A2 / Fold change vs veh, SLC12A2 / RFU, IBTK / Fold change vs veh, IBTK / RFU, ESF1 / Fold change vs veh, ESF1 / Fold change vs veh, TMEM50B / RFU, TAOK1 / Fold change vs veh, TAOK1 / RFU, ACBD3 / Fold change vs veh, ACBD3 / RFU, TMA16 / Fold change vs veh, TMA16 / RFU, RWDD3 / Fold change vs veh, RWDD3 / RFU, BCAT1 / Fold change vs veh, BCAT1 / RFU, EDEM3 / Fold change vs veh, EDEM3 / RFU, TMEM33 / Fold change vs veh, TMEM33 / RFU, WDR75 / Fold change vs veh, WDR75 / RFU, AHCTF1 / Fold change vs veh, AHCTF1 / RFU, TFRC / Fold change vs veh, TFRC / RFU, ZDHHC17 / Fold change vs veh, ZDHHC17 / RFU, NOM1 / Fold change vs veh, NOM1 / RFU, ARL8B / Fold change vs veh, ARL8B / RFU, ZBTB11 / Fold change vs veh, ZBTB11 / RFU, TAMM41 / Fold change vs veh, TAMM41 / RFU, KIAA1704 /// LOC100996395 / Fold change vs veh, KIAA1704 /// LOC100996395 / RFU, ING1 / Fold change vs veh, ING1 / RFU, TRMT61B / Fold change vs veh, TRMT61B / RFU, FUBP3 / Fold change vs veh, FUBP3 / RFU, TP53 / Fold change vs veh, TP53 / RFU, TNKS2 / Fold change vs veh, TNKS2 / RFU, ZFP14 / Fold change vs veh, ZFP14 / RFU, ACTR2 / Fold change vs veh, ACTR2 / RFU, PPP3R1 / Fold change vs veh, PPP3R1 / RFU, PIK3R1 / Fold change vs veh, PIK3R1 / RFU, HNRNPA1 / Fold change vs veh, HNRNPA1 / RFU, RNF170 / Fold change vs veh, RNF170 / RFU, ZNF28 / Fold change vs veh, ZNF28 / RFU, RNGTT / Fold change vs veh, RNGTT / RFU, OGT / Fold change vs veh, OGT / RFU, BRD1 / Fold change vs veh, BRD1 / RFU, MARS / Fold change vs veh, MARS / RFU, ZNF655 / Fold change vs veh, ZNF655 / RFU, FAHD1 / Fold change vs veh, FAHD1 / RFU, BDP1 / Fold change vs veh, BDP1 / RFU, LRRCC1 / Fold change vs veh, LRRCC1 / RFU, ARID1A / Fold change vs veh, ARID1A / RFU, ZNF146 / Fold change vs veh, ZNF146 / RFU, ZNF330 / Fold change vs veh, ZNF330 / RFU, GPN3 / Fold change vs veh, GPN3 / RFU, C9orf123 / Fold change vs veh, C9orf123 / RFU, N4BP2L2 / Fold change vs veh, N4BP2L2 / RFU, ARFIP1 / Fold change vs veh, ARFIP1 / RFU, FAM179B / Fold change vs veh, FAM179B / RFU, BCL10 / Fold change vs veh, BCL10 / RFU, UHRF1BP1L / Fold change vs veh, UHRF1BP1L / RFU, BET1 / Fold change vs veh, BET1 / RFU, CNOT2 / Fold change vs veh, CNOT2 / RFU, ZNF268 / Fold change vs veh, ZNF268 / Fold change vs veh, ZNF507 / RFU, DGCR2 / Fold change vs veh, DGCR2 / RFU, WDSUB1 / Fold change vs veh, WDSUB1 / Fold change vs veh, HSP90B1 /// MIR3652 / RFU, ADSS / Fold change vs veh, ADSS / RFU, GK / Fold change vs veh, GK / RFU, ZNF148 / Fold change vs veh, ZNF148 / RFU, TAF9 / Fold change vs veh, TAF9 / RFU, SLC1A5 / Fold change vs veh, SLC1A5 / RFU, SLMO2 / Fold change vs veh, SLMO2 / RFU, ABCC4 / Fold change vs veh, ABCC4 / RFU, LOC101060439 /// RAP1B / Fold change vs veh, LOC101060439 /// RAP1B / RFU, RFX7 / Fold change vs veh, RFX7 / RFU, GTPBP10 / Fold change vs veh, GTPBP10 / RFU, CNEP1R1 / Fold change vs veh, CNEP1R1 / RFU, BIVM-ERCC5 /// ERCC5 / Fold change vs veh, BIVM-ERCC5 /// ERCC5 / RFU, ILF3 / Fold change vs veh, ILF3 / RFU 11762660_at / Fold change /veh 11762660_at / RFU VCAN (11757783_s_at) / Fold change /veh VCAN (11757783_s_at) / RFU DDX43 (11728927_at) / Fold change /veh DDX43 (11728927_at) / RFU KRT8 (11758188_x_at) / Fold change /veh KRT8 (11758188_x_at) / RFU NKD1 (11759106_at) / Fold change /veh NKD1 (11759106_at) / RFU SRD5A1 (11742802_a_at) / Fold change /veh SRD5A1 (11742802_a_at) / RFU TPSAB1 /// TPSB2 (11721975_s_at) / Fold change /veh TPSAB1 /// TPSB2 (11721975_s_at) / RFU GSTM3 (11746129_a_at) / Fold change /veh GSTM3 (11746129_a_at) / RFU IL23R (11737362_x_at) / Fold change /veh IL23R (11737362_x_at) / RFU TMEM51 (11727254_a_at) / Fold change /veh TMEM51 (11727254_a_at) / RFU PIWIL2 (11732686_x_at) / Fold change /veh PIWIL2 (11732686_x_at) / RFU ORM1 (11744905_x_at) / Fold change /veh ORM1 (11744905_x_at) / RFU CCDC152 (11743942_at) / Fold change /veh CCDC152 (11743942_at) / RFU ECM1 (11717891_a_at) / Fold change /veh ECM1 (11717891_a_at) / RFU IL23R (11748794_a_at) / Fold change /veh IL23R (11748794_a_at) / RFU TNFAIP8L3 (11732012_x_at) / Fold change /veh TNFAIP8L3 (11732012_x_at) / RFU MBOAT4 (11741988_at) / Fold change /veh MBOAT4 (11741988_at) / RFU 11764193_at / Fold change /veh 11764193_at / RFU TMEM53 (11763286_at) / Fold change /veh TMEM53 (11763286_at) / RFU MAGEB2 (11727129_at) / Fold change /veh MAGEB2 (11727129_at) / RFU TMEM200A (11744735_a_at) / Fold change /veh TMEM200A (11744735_a_at) / RFU CCDC152 (11751479_a_at) / Fold change /veh CCDC152 (11751479_a_at) / RFU FAM211A (11726209_a_at) / Fold change /veh FAM211A (11726209_a_at) / RFU RGS16 (11746705_a_at) / Fold change /veh RGS16 (11746705_a_at) / RFU VCAN (11755009_s_at) / Fold change /veh VCAN (11755009_s_at) / RFU RHOB (11743442_s_at) / Fold change /veh RHOB (11743442_s_at) / RFU RGS16 (11720943_a_at) / Fold change /veh RGS16 (11720943_a_at) / RFU RGS16 (11720944_at) / Fold change /veh RGS16 (11720944_at) / RFU, VPS4B / Fold change vs veh, VPS4B / RFU, CREB1 / Fold change vs veh, CREB1 / RFU, DNAJC13 / Fold change vs veh, DNAJC13 / RFU, GNAQ / Fold change vs veh, GNAQ / RFU, CDK5R1 / Fold change vs veh, CDK5R1 / RFU, ZRANB3 / Fold change vs veh, ZRANB3 / RFU, CUL4A / Fold change vs veh, CUL4A / RFU, CCNY / Fold change vs veh, CCNY / RFU, UFL1 / Fold change vs veh, UFL1 / RFU, COG3 / Fold change vs veh, COG3 / RFU, DIAPH2 / Fold change vs veh, DIAPH2 / RFU, SKA2 / Fold change vs veh, SKA2 / RFU, AFF3 / Fold change vs veh, AFF3 / RFU, LMF1 / Fold change vs veh, LMF1 / RFU, IPO11 / Fold change vs veh, IPO11 / RFU, DFFB / Fold change vs veh, DFFB / RFU, FOXP1 / Fold change vs veh, FOXP1 / RFU, CARD8 / Fold change vs veh, CARD8 / RFU, STRN3 / Fold change vs veh, STRN3 / RFU, ADK / Fold change vs veh, ADK / RFU, RASSF2 / Fold change vs veh, RASSF2 / RFU, WIPF1 / Fold change vs veh, WIPF1 / RFU, LARP1B / Fold change vs veh, LARP1B / RFU, RASA1 / Fold change vs veh, RASA1 / RFU, RB1 / Fold change vs veh, RB1 / RFU, PPFIA1 / Fold change vs veh, PPFIA1 / RFU, MAT2A / Fold change vs veh, MAT2A / RFU, CCT5 / Fold change vs veh, CCT5 / RFU, WDR92 / Fold change vs veh, WDR92 / RFU, CUX1 / Fold change vs veh, CUX1 / RFU, TTC7A / Fold change vs veh, TTC7A / RFU, TMEM135 / Fold change vs veh, TMEM135 / RFU, DEPTOR / Fold change vs veh, DEPTOR / RFU, CPM / Fold change vs veh, CPM / RFU, DNAJB6 / Fold change vs veh, DNAJB6 / RFU, CACNA2D3 / Fold change vs veh, CACNA2D3 / RFU, DTX4 / Fold change vs veh, DTX4 / RFU, TFCP2 / Fold change vs veh, TFCP2 / RFU, GMCL1 /// GMCL1P1 / Fold change vs veh, GMCL1 /// GMCL1P1 / RFU, AEBP2 / Fold change vs veh, AEBP2 / RFU, SNHG1 /// SNORD22 /// SNORD25 /// SNORD26 /// SNORD27 /// SNORD28 /// SNORD29 /// SNORD31 / Fold change vs veh, SNHG1 /// SNORD22 /// SNORD25 /// SNORD26 /// SNORD27 /// SNORD28 /// SNORD29 /// SNORD31 / Fold change (Aza/veh), C12orf56 (ProbeSet 11735607_a_at) / Fold change (ACY-1035/veh), C12orf56 (ProbeSet 11735607_a_at) / Fold change (Aza/veh), FGFR1OP (ProbeSet 11751329_s_at) / Fold change (ACY-1035/veh), FGFR1OP (ProbeSet 11751329_s_at) / Fold change (Aza/veh), VPS36 (ProbeSet 11739960_a_at) / Fold change (ACY-1035/veh), VPS36 (ProbeSet 11739960_a_at) / RFU SYPL1 (11715823_x_at) / Fold change /veh SYPL1 (11715823_x_at) / RFU IGFBP7 (11715501_s_at) / Fold change /veh IGFBP7 (11715501_s_at) / RFU REEP3 (11722064_at) / Fold change /veh REEP3 (11722064_at) / RFU IGLL1 (11728026_x_at) / Fold change /veh IGLL1 (11728026_x_at): dose or concentration left out as unconfirmed
Details: MV-4-11 cells, 48 hours

Nc1ccc(-c2cccs2)cc1NC(=O)c1ccc2c(c1)cc(C1CC1)n2CCN1CCOCC1 [ACY-1035]
Fold change /veh CDKN2B (11736163_a_at): 1.20
